Data on 2 compounds can be found in US20020103083A1, “Promoting deeper root development, reducing nitrogen fertilizer usage, imparting drought resistance, and increasing tolerance to adverse soil conditions in plants” (priority 2000, published 2002).

SMILES strings stand for the structures.

The subject of this test is T. harzianum strain T-22. Briefly: Effect of chemical seed treatments on subsequent root colonization by T-22. Particulars: full rates of chemical seed treatment. It is filed as in vivo, Trichoderma harzianum. An excerpt: In nearly all cases, the best results in direct-seeded field crops are obtained with an integration of chemical seed treatments and the deep root developing agents. […] This resistance permits the use of both the biological root colonizing agent and chemical seed protectants.

Consider `CC(C)(C)C(O)(CCc1ccc(Cl)cc1)Cn1cncn1` (centres unmarked) [tebuconazole], for which the “prevention of subsequent root colonization by T-22” value is “exceptions”. Consider `CN(C)C(=S)SSC(=S)N(C)C` [thiram], for which the “prevention of subsequent root colonization by T-22” value is listed as “exceptions”.
